Data on eleven compounds can be found in publication PMC11434080, “Acetylation of Oleanolic Acid Dimers as a Method of Synthesis of Powerful Cytotoxic Agents” (Molecules, 2024).

Data set [1] concerns PC-3. Kind of data set: MTT assay, PC-3. The class given is cell-based, human. The conditions noted are these: for IC50: MTT assay, PC-3 human prostate carcinoma, value (SD), read-out: B IC50 (SD); for B SI: Selectivity Index = IC50 HDF / IC50 of PC-3. The procedure:
(§1) The cytotoxic activity of oleanolic acid (mother compound, 1, Figure 2) and its 14 derivatives (3a–3n, Figure 2) was tested in vitro using the standard MTT method based on viability assay, e.g., [44] against carcinoma cell lines: SKBR-3, SKOV-3, PC-3, U-87, and one normal cell line: HDF.
(§2) Human cancer cells: SKBR-3 and SKOV-3 were cultured in McCoy’s Modified Medium; PC-3 was cultured in an F-12K medium; U-87 was cultured in EMEM medium; HDF was cultured in Fibroblast Basal Medium. Each medium was supplemented with 10% fetal bovine serum, 1% L- glutamine, and 1% penicillin/streptomycin solution. The cell lines were kept in an incubator at 37 °C. All the cell lines and mediums were obtained from the American Type Culture Collection (ATCC) supplied by LGC-Standards (Lomianki, Poland).
(§3) The MTT assay was conducted as described earlier, e.g., [44]. In short, this method is based on the reaction between mitochondria enzymes (dehydrogenases) of tested cell lines and 3-(4,5-dimethylthiazol-2-yl)-2,5-diphenyltetrazolium bromide (MTT). The final product of this reaction gives violet formazan crystals. The number of live cells is proportional to the amount of formazan and is represented by the violet dye reagent. The details of the experiments are given in [44].

Data set [2] relates to U-87. Put plainly: MTT assay, U-87. Format: cell-based, human. As to conditions: for U-87 SI: Selectivity Index = IC50 HDF / IC50 U-87; for IC50: U-87 MG, MTT assay, U-87 human glioblastoma, value (SD). On the procedure:
as §1, §2, §3
In general terms: Tetrazolium assays rely on reduction of a dye to a coloured formazan, in cell work by metabolically active cells.

Data set [3] is described as follows: CUPRAC antioxidant assay. The conditions noted are these: for CUPRAC activity (in words): Figure 3. An excerpt: (§4) The results of the antioxidant activity of oleanolic acid (1) and Acetylated Oleanolic Acid Dimers (AcOADs) 3a–3n evaluated with CUPRAC and DPPH assays are given in Figure 3. The results are presented as % inhibition of the copper(II) ions and Trolox equivalent (blue bars) calculated from the standard curve, presented in the Supplementary Materials (Supplementary Materials S02, Figure S1) and as % inhibition of the DPPH radical and Trolox equivalent (pink bars), calculated from the standard curve presented in the Supplementary Materials (Supplementary Materials S02, Figure S2).
(§5) The CUPRAC reagent (7.5 mM ethanolic 96% neocuproine solution, 10 mM CuCl2 × H2O solution, and an ammonium acetate buffer of pH 7.0) and DPPH reagent (2,2-diphenyl-1-picrylhydrazyl 0.2 mM solution) were applied.
(§6) The DPPH assay relies on the ability of an antioxidant to donate a hydrogen atom or an electron to the stable DPPH radical, resulting in its reduction and subsequent color change. In contrast, the CUPRAC method measures the reducing power of a sample by quantifying its ability to convert the Cu-neocuproine reagent complex into the Cu(I) form. The results are presented as % inhibition of the copper(II) ions and Trolox equivalent (blue bars) calculated from the standard curve (Supplementary Materails S02, Figure S1) and as % inhibition of the DPPH radical and Trolox equivalent (pink bars), calculated from the standard curve (Supplementary Materials S02, Figure S2). The details of the experiments are given in [46].

Data set [4] concerns SKOV-3. Put plainly: MTT assay, SKOV-3. The conditions noted are these: for SKOV-3 SI: Selectivity Index = IC50 HDF / IC50 SKOV-3; for IC50: SK-OV-3, MTT assay, SKOV-3 human ovarian cystadenocarcinoma, value (SD). Format: cell-based, human. On the procedure:
as §1, §2, §3

Data set [5] in a line: DPPH antioxidant assay. As to conditions: for DPPH activity (in words): Figure 3.
Source text: as §4, §5, §6

For data set [6], the system named is SKBR-3. Kind of data set: MTT assay, SKBR-3. Format: cell-based, human. As to conditions: for SKBR-3 SI: Selectivity Index = IC50 HDF / IC50 SKBR-3; for IC50: SK-BR-3, MTT assay, SKBR-3 human breast adenocarcinoma, value (SD). The procedure: as §1, §2, §3
The test system of data set [7] is HDF. Kind of data set: MTT assay, HDF normal cell line. Format: cell-based. The conditions noted are these: Homo sapiens, value (SD). The procedure: as §1, §2, §3
Details of data set [8]: method as in PMID 39000101, PMID 39125028. The conditions noted are these: previously analyzed derivatives; cited from earlier work.
On the set-up of data set [9]: method as in PMID 39000101, PMID 39125028. The conditions noted are these: previously analyzed derivatives; cited from earlier work. The source holds these as a separate data set.
Data set [10] deals with SKBR-3, SKOV-3, PC-3, and U-87 cancer cell lines. Kind of data set: MTT assay, four cancer cell lines taken together. The class given is cell-based, human. As to conditions: MTT, across SKBR-3, SKOV-3, PC-3, U-87. The procedure:
as §1, §2, §3

The nature of data set [11]: Solubility in ethanol observed at crystallization. The class given is physicochemical. The conditions noted are these: room temperature.

Entries after “also recorded” stand apart in the source; their conditions may differ.

As a reminder, the IC50 is the concentration at which inhibition is half-maximal. In the case of `CC1(C)CC[C@]2(C(=O)O)CC[C@]3(C)C(=CC[C@@H]4[C@@]5(C)CC[C@H](O)C(C)(C)[C@@H]5CC[C@]43C)[C@@H]2C1` [Compound 1, oleanolic acid], the IC50 in [1] was 18.6 µM; in data set [2] it was 18.2 µM; in data set [7], 24.9 µM. In addition, in data set [1], the “B SI” value stood at 1.33. In addition, in data set [2], the “U-87 SI” value is given as 1.37. The compound further yielded a CUPRAC antioxidant activity in [3] of 0.05474 ± 0.00171 Trolox equivalents. The “SKOV-3 SI” value in [4] was 1.32. This compound also showed a DPPH antioxidant activity in data set [5] of 0.01907 ± 0.0006506 Trolox equivalents. Besides, the “SKBR-3 SI” value in data set [6] turned out to be 1.27.

`CC1(C)CCC2(C(=O)OCOC(=O)C34CCC(C)(C)CC3C3=CCC5C6(C)CCC(O)C(C)(C)C6CCC5(C)C3(C)CC4)CCC3(C)C(=CCC4C5(C)CCC(O)C(C)(C)C5CCC43C)C2C1` (stereo not drawn) [Compound 2a]: in data set [8], the “CUPRAC activity (in words), previous analysis” value was “lower CUPRAC activity”. Besides, the “DPPH activity (in words), previous analysis” value in data set [9] is given as “high DPPH activity”.

In the case of `CC1(C)CCC2(C(=O)OCCCCCOC(=O)C34CCC(C)(C)CC3C3=CCC5C6(C)CCC(O)C(C)(C)C6CCC5(C)C3(C)CC4)CCC3(C)C(=CCC4C5(C)CCC(O)C(C)(C)C5CCC43C)C2C1` (stereo not drawn) [Compound 2g], in [8], the “CUPRAC activity (in words), previous analysis” value is “high CUPRAC values”.

In the case of `CC1(C)CCC2(C(=O)OCCCCCCCOC(=O)C34CCC(C)(C)CC3C3=CCC5C6(C)CCC(O)C(C)(C)C6CCC5(C)C3(C)CC4)CCC3(C)C(=CCC4C5(C)CCC(O)C(C)(C)C5CCC43C)C2C1` (stereo not drawn) [Compound 2i], in data set [8], the “CUPRAC activity (in words), previous analysis” value was “high CUPRAC values”.

Regarding `CC1(C)CCC2(C(=O)OCCCCCCCCOC(=O)C34CCC(C)(C)CC3C3=CCC5C6(C)CCC(O)C(C)(C)C6CCC5(C)C3(C)CC4)CCC3(C)C(=CCC4C5(C)CCC(O)C(C)(C)C5CCC43C)C2C1` (stereo not drawn) [Compound 2j], in [8], the “CUPRAC activity (in words), previous analysis” value was “high CUPRAC values”.

`CC1(C)CCC2(C(=O)OCCCCCCCCCCCOC(=O)C34CCC(C)(C)CC3C3=CCC5C6(C)CCC(O)C(C)(C)C6CCC5(C)C3(C)CC4)CCC3(C)C(=CCC4C5(C)CCC(O)C(C)(C)C5CCC43C)C2C1` (stereo not drawn) [Compound 2m]: in [8], the “CUPRAC activity (in words), previous analysis” value is “high CUPRAC values”.

What is called melting point is the temperature, or range, at which the solid turns liquid. For the compound `CC(=O)OC1CCC2(C)C(CCC3(C)C2CC=C2C4CC(C)(C)CCC4(C(=O)OCOC(=O)C45CCC(C)(C)CC4C4=CCC6C7(C)CCC(OC(C)=O)C(C)(C)C7CCC6(C)C4(C)CC5)CCC23C)C1(C)C` (stereo not drawn) [Compound 3a], the melting point fell in the range of 286 to 288 °C. For the same compound, the half-maximal inhibitory concentration (IC50) in [1] amounted to 2.26 µM. The same compound displayed an IC50 in data set [2] of 2.03 µM. Also, the “CUPRAC activity (in words)” value in [3] was “moderate CUPRAC activity”. For the same compound, in data set [5], the “DPPH activity (in words)” value is given as “higher antioxidant activity than OA; also recorded: high DPPH activity”. This compound also yielded an IC50 in [6] of 2.04 µM. The IC50 in data set [7] worked out at 6.63 µM. Further, the IC50 in [10] (Homo sapiens) was roughly 2 µM.

`CC(=O)OC1CCC2(C)C(CCC3(C)C2CC=C2C4CC(C)(C)CCC4(C(=O)OCCOC(=O)C45CCC(C)(C)CC4C4=CCC6C7(C)CCC(OC(C)=O)C(C)(C)C7CCC6(C)C4(C)CC5)CCC23C)C1(C)C` (stereo not drawn) [Compound 3b]: the half-maximal inhibitory concentration (IC50) in data set [1] is 3.12 µM; in data set [2] it was 3.1 µM; in [4], 3.04 µM; in [6], 2.97 µM; in data set [7], 7.05 µM; in data set [10] (Homo sapiens) it was 2.5 to 4.5 µM. Besides, the “B SI” value in data set [1] is reported as 2.26. For the same compound, in data set [2], the “U-87 SI” value was 2.27. Moreover, the “CUPRAC activity (in words)” value in data set [3] is given as “highest CUPRAC activity; also recorded: high CUPRAC activity”. In [4], the “SKOV-3 SI” value was 2.32. In addition, the “DPPH activity (in words)” value in data set [5] is reported as “low DPPH activity”. In addition, the “SKBR-3 SI” value in data set [6] was found to be 2.37.

For `CC(=O)OC1CCC2(C)C(CCC3(C)C2CC=C2C4CC(C)(C)CCC4(C(=O)OCC=CCOC(=O)C45CCC(C)(C)CC4C4=CCC6C7(C)CCC(OC(C)=O)C(C)(C)C7CCC6(C)C4(C)CC5)CCC23C)C1(C)C` (stereo not drawn) [Compound 3e], the IC50 in data set [1] is 3.35 µM; in data set [2], 3.48 µM; in data set [4] it was 2.95 µM; in [6], 3.07 µM; in data set [7], 6.66 µM; in data set [10] (Homo sapiens) it was 2.5 to 4.5 µM. For the same compound, in data set [1], the “B SI” value stood at 1.99. For the same compound, the “U-87 SI” value in data set [2] is 1.91. The “CUPRAC activity (in words)” value in data set [3] is “highest CUPRAC activity”. The “SKOV-3 SI” value in data set [4] came to 2.26. The “SKBR-3 SI” value in data set [6] was 2.17.

As to `CC(=O)OC1CCC2(C)C(CCC3(C)C2CC=C2C4CC(C)(C)CCC4(C(=O)OCCCCCCCCCCCOC(=O)C45CCC(C)(C)CC4C4=CCC6C7(C)CCC(OC(C)=O)C(C)(C)C7CCC6(C)C4(C)CC5)CCC23C)C1(C)C` (stereo not drawn) [Compound 3m], the concentration for half-maximal inhibition (IC50) is 1.76 µM in [1]; 1.83 µM in data set [2]; 2.31 µM in data set [4]; 1.78 µM in [6]; 4.62 µM in data set [7]; roughly 2 µM in [10] (Homo sapiens). In data set [10], this compound gave an IC50 of no more than 2 µM. Moreover, the “B SI” value in data set [1] was determined as 2.62. In data set [2], the “U-87 SI” value was 2.52. Moreover, the “CUPRAC activity (in words)” value in data set [3] is listed as “highest CUPRAC activity”. The “SKOV-3 SI” value in data set [4] came out at 2.00. For the same compound, the “SKBR-3 SI” value in [6] amounted to 2.59. In data set [11], the solubility in ethanol entry is listed as “well soluble”.

Consider `CC(=O)OC1CCC2(C)C(CCC3(C)C2CC=C2C4CC(C)(C)CCC4(C(=O)OCCCCCCCCCCCCOC(=O)C45CCC(C)(C)CC4C4=CCC6C7(C)CCC(OC(C)=O)C(C)(C)C7CCC6(C)C4(C)CC5)CCC23C)C1(C)C` (stereo not drawn) [Compound 3n], for which, in data set [1], the IC50 stood at 9.49 µM and the “B SI” value is 1.55. Further, in data set [2], the “U-87 SI” value is listed as 1.45 and it took 10.2 µM to reach half-maximal inhibition (IC50). Moreover, in [4], the IC50 was 10.2 µM and the “SKOV-3 SI” value is listed as 1.43. In [6], half-maximal inhibition (IC50) required 9.69 µM and the “SKBR-3 SI” value was 1.52. Also, the solubility in ethanol entry in [11] is “well soluble”. In addition, the 50% inhibitory concentration (IC50) in [7] came to 14.7 µM.
